The values below come from US20080293712A1, “Benzo[C][2,7]Naphtyridine Derivatives, Methods of Making Thereof and Methods of Use Thereof” (WYETH, priority 2007, published 2008).

The structures appear in SMILES notation. Some results are limits rather than exact numbers.

In the first assay the target is T1, PDK-1 (Homo sapiens, UniProt O15530).
T1 sequence (O15530 1-556): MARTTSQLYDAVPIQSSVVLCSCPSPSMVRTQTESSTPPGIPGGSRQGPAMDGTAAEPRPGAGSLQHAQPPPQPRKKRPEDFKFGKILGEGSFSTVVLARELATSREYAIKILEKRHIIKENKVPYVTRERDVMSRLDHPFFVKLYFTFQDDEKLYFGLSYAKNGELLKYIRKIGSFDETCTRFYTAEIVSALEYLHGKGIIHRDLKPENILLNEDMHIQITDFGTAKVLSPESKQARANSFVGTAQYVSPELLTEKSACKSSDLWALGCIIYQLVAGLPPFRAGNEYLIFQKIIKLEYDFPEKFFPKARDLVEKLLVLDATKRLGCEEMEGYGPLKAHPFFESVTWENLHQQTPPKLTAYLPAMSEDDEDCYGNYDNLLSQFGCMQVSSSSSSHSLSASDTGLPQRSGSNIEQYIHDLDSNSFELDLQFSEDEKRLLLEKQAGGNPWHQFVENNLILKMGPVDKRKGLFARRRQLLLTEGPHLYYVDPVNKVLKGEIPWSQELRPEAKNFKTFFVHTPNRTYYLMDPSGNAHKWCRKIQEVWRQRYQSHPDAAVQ
The assay can be described thus: PDK-1 kinase inhibition ELISA assay (phosphorylation of His6-tagged SGK1 S422D by PDK-1). Format: biochemical.
Conditions: not given
By IC50 is commonly meant the concentration that gives 50% inhibition. Take `COc1cccc(Nc2cncc(-c3cc4c(cnc5cc(OC)c(OC)cc54)c(N)n3)c2)c1` [Ib-176, 8,9-dimethoxy-2-{5-[(3-methoxyphenyl)amino]pyridin-3-yl}benzo[c][2,7]naphthyridin-4-amine]: the half-maximal inhibitory concentration (IC50) amounted to 434 nM.
Same read-out and setting: as for `COc1ccc(Nc2cncc(-c3cc4c(cnc5cc(OC)c(OC)cc54)c(N)n3)c2)cc1` [Ib-177, 8,9-dimethoxy-2-{5-[(4-methoxyphenyl)amino]pyridin-3-yl}benzo[c][2,7]naphthyridin-4-amine], the figure is 383 nM.

Staying with this assay, now noted: PDK-1 ELISA, Table 11; read-out: Average IC50.
Take `COc1cc2ncc3c(N)nc(-c4cncc(OC[C@@H](N)COc5ccccc5F)c4)cc3c2cc1OC` [Ib-141, 2-(5-{[(2R)-2-amino-3-(2-fluorophenoxy)propyl]oxy}pyridin-3-yl)-8,9-dimethoxybenzo[c][2,7]naphthyridin-4-amine]: the half-inhibitory concentration (IC50) amounted to 10 nM.
Same read-out and setting: as for `COc1cc2ncc3c(N)nc(-c4cncc(OC[C@@H](N)COc5ccc(F)c(F)c5)c4)cc3c2cc1OC` [Ib-143, 2-(5-{[(2S)-2-amino-3-(3,4-difluorophenoxy)propyl]oxy}pyridin-3-yl)-8,9-dimethoxybenzo[c][2,7]naphthyridin-4-amine], the figure is 7 nM.
For the compound `COc1cc2ncc3c(N)nc(-c4cncc(OC[C@@H](N)COc5cc(C(F)(F)F)ccc5F)c4)cc3c2cc1OC` [Ib-144, 2-[5-({(2R)-2-amino-3-[2-fluoro-5-(trifluoromethyl)phenoxy]propyl}oxy)pyridin-3-yl]-8,9-dimethoxybenzo[c][2,7]naphthyridin-4-amine], the concentration for half-maximal inhibition (IC50) is 64 nM.
`COc1cc2ncc3c(N)nc(-c4cncc(OC[C@@H](N)COc5ccc(C(F)(F)F)cn5)c4)cc3c2cc1OC` [Ib-145, 2-(5-{[(2R)-2-amino-3-{[5-(trifluoromethyl)pyridin-2-yl]oxy}propyl]oxy}pyridin-3-yl)-8,9-dimethoxybenzo[c][2,7]naphthyridin-4-amine]: the IC50 came out at 4 nM.
As to `COc1cc2ncc3c(N)nc(-c4cncc(OC[C@@H](N)COc5nc6ccccc6[nH]5)c4)cc3c2cc1OC` [Ib-146, 2-(5-{[(2R)-2-amino-3-(1H-benzimidazol-2-yloxy)propyl]oxy}pyridin-3-yl)-8,9-dimethoxybenzo[c][2,7]naphthyridin-4-amine], the half-maximal inhibitory concentration (IC50) is 2 nM.
Consider `COc1cc2ncc3c(N)nc(-c4cncc(OC[C@@H](N)COc5nccc6ccccc56)c4)cc3c2cc1OC` [Ib-147, 2-(5-{[(2R)-2-amino-3-(isoquinolin-1-yloxy)propyl]oxy}pyridin-3-yl)-8,9-dimethoxybenzo[c][2,7]naphthyridin-4-amine], for which the concentration for half-maximal inhibition (IC50) is 10 nM.
Take `COc1cc2ncc3c(N)nc(-c4cncc(OC[C@@H](N)COC5=NCCN5)c4)cc3c2cc1OC` [Ib-148, 2-(5-{[(2R)-2-amino-3-(4,5-dihydro-1H-imidazol-2-yloxy)propyl]oxy}pyridin-3-yl)-8,9-dimethoxybenzo[c][2,7]naphthyridin-4-amine]: the IC50 turned out to be 9 nM.
In the case of `COc1cc2ncc3c(N)nc(-c4cncc(OC[C@@H](N)COc5ncccn5)c4)cc3c2cc1OC` [Ib-149, 2-(5-{[(2R)-2-amino-3-(pyrimidin-2-yloxy)propyl]oxy}pyridin-3-yl)-8,9-dimethoxybenzo[c][2,7]naphthyridin-4-amine], the IC50 is 7 nM.
Take `COc1cc2ncc3c(N)nc(-c4cncc(OC[C@@H](N)COc5nc6ccccc6s5)c4)cc3c2cc1OC` [Ib-150, 2-(5-{[(2R)-2-amino-3-(1,3-benzothiazol-2-yloxy)propyl]oxy}pyridin-3-yl)-8,9-dimethoxybenzo[c][2,7]naphthyridin-4-amine]: the concentration for half-maximal inhibition (IC50) turned out to be 6 nM.
Same read-out and setting: next, `COc1cc2ncc3c(N)nc(-c4cncc(OC[C@@H](N)COc5ccncc5)c4)cc3c2cc1OC` [Ib-151, 2-(5-{[(2S)-2-amino-3-(pyridin-4-yloxy)propyl]oxy}pyridin-3-yl)-8,9-dimethoxybenzo[c][2,7]naphthyridin-4-amine]: 10 nM; `COc1cc2ncc3c(N)nc(-c4cncc(OC[C@@H](N)COc5cc(C)ccn5)c4)cc3c2cc1OC` [Ib-152, 2-[5-({(2R)-2-amino-3-[(4-methylpyridin-2-yl)oxy]propyl}oxy)pyridin-3-yl]-8,9-dimethoxybenzo[c][2,7]naphthyridin-4-amine]: 9 nM.
Take `COc1cc2ncc3c(N)nc(-c4cncc(OC[C@@H](N)COc5ncc(Cl)cc5Cl)c4)cc3c2cc1OC` [Ib-153, 2-[5-({(2R)-2-amino-3-[(3,5-dichloropyridin-2-yl)oxy]propyl}oxy)pyridin-3-yl]-8,9-dimethoxybenzo[c][2,7]naphthyridin-4-amine]: the IC50 was determined as 4 nM.
Take `COc1cc2ncc3c(N)nc(-c4cncc(OC[C@@H](N)COc5ccc(Cl)cn5)c4)cc3c2cc1OC` [Ib-154, 2-[5-({(2R)-2-amino-3-[(5-chloropyridin-2-yl)oxy]propyl}oxy)pyridin-3-yl]-8,9-dimethoxybenzo[c][2,7]naphthyridin-4-amine]: the IC50 is 4 nM.
`COc1cc2ncc3c(N)nc(-c4cncc(OC[C@@H](N)COc5nccs5)c4)cc3c2cc1OC` [Ib-156, 2-(5-{[(2R)-2-amino-3-(1,3-thiazol-2-yloxy)propyl]oxy}pyridin-3-yl)-8,9-dimethoxybenzo[c][2,7]naphthyridin-4-amine]: the IC50 was determined as 3 nM.
For `COc1cc2ncc3c(N)nc(-c4cncc(OC[C@@H](N)COc5ccc(CCC#N)cc5)c4)cc3c2cc1OC` [Ib-158, 3-(4-{[(2S)-2-amino-3-{[5-(4-amino-8,9-dimethoxybenzo[c][2,7]naphthyridin-2-yl)pyridin-3-yl]oxy}propyl]oxy}phenyl)propanenitrile], the IC50 came to 55 nM.
On the same count and under the same terms, next, `COc1cc2ncc3c(N)nc(-c4cncc(OC[C@@H](N)CSc5ccccn5)c4)cc3c2cc1OC` [Ib-159, 2-(5-{[(2R)-2-amino-3-(pyridin-2-ylthio)propyl]oxy}pyridin-3-yl)-8,9-dimethoxybenzo[c][2,7]naphthyridin-4-amine]: 3 nM.
With `COc1cc2ncc3c(N)nc(-c4cncc(OC[C@@H](N)CSc5nccn5C)c4)cc3c2cc1OC` [Ib-161, 2-[5-({(2R)-2-amino-3-[(1-methyl-1H-imidazol-2-yl)thio]propyl}oxy)pyridin-3-yl]-8,9-dimethoxybenzo[c][2,7]naphthyridin-4-amine], the IC50 was 3 nM.
As for `COc1cc2ncc3c(N)nc(-c4cncc(OC[C@@H](N)CSc5ccccc5)c4)cc3c2cc1OC` [Ib-162, 2-(5-{[(2R)-2-amino-3-(phenylthio)propyl]oxy}pyridin-3-yl)-8,9-dimethoxybenzo[c][2,7]naphthyridin-4-amine], the IC50 was 4 nM.
`COc1cc2ncc3c(N)nc(-c4cncc(OC[C@@H](N)CSc5ccc(Cl)cc5Cl)c4)cc3c2cc1OC` [Ib-163, 2-[5-({(2R)-2-amino-3-[(2,4-dichlorophenyl)thio]propyl}oxy)pyridin-3-yl]-8,9-dimethoxybenzo[c][2,7]naphthyridin-4-amine]: the IC50 is 12 nM.
On to `COc1cc2ncc3c(N)nc(-c4cncc(OC[C@@H](N)CSc5ccncc5)c4)cc3c2cc1OC` [Ib-164, 2-(5-{[(2R)-2-amino-3-(pyridin-4-ylthio)propyl]oxy}pyridin-3-yl)-8,9-dimethoxybenzo[c][2,7]naphthyridin-4-amine], for which the half-inhibitory concentration (IC50) turned out to be 10 nM.
Consider `COc1cc2ncc3c(N)nc(-c4cncc(OC[C@@H](N)CSc5nccs5)c4)cc3c2cc1OC` [Ib-166, 2-(5-{[(2R)-2-amino-3-(1,3-thiazol-2-ylthio)propyl]oxy}pyridin-3-yl)-8,9-dimethoxybenzo[c][2,7]naphthyridin-4-amine], for which the IC50 is 3 nM.
Take `COc1cc2ncc3c(N)nc(-c4cncc(OC[C@@H](N)CSc5ncc(CO)n5C)c4)cc3c2cc1OC` [Ib-167, (2-{[(2R)-2-amino-3-{[5-(4-amino-8,9-dimethoxybenzo[c][2,7]naphthyridin-2-yl)pyridin-3-yl]oxy}propyl]thio}-1-methyl-1H-imidazol-5-yl)methanol]: the 50% inhibitory concentration (IC50) was 5 nM.
For `COc1cc2ncc3c(N)nc(-c4cncc(Oc5ncccc5N)c4)cc3c2cc1OC` [Ib-169, 2-{5-[(3-Aminopyridin-2-yl)oxy]pyridin-3-yl}-8,9-dimethoxybenzo[c][2,7]naphthyridin-4-amine], the half-maximal inhibitory concentration (IC50) was found to be 60 nM.
The same measure, in the same setting: next, `COc1cc2ncc3c(N)nc(-c4cncc(Oc5ccncc5N)c4)cc3c2cc1OC` [Ib-170, 2-{5-[(3-Aminopyridin-4-yl)oxy]pyridin-3-yl}-8,9-dimethoxybenzo[c][2,7]naphthyridin-4-amine]: 115 nM.
Turning to `COc1cc2ncc3c(N)nc(-c4cncc(Oc5cccc(N)n5)c4)cc3c2cc1OC` [Ib-171, 2-{5-[(6-Aminopyridin-2-yl)oxy]pyridin-3-yl}-8,9-dimethoxybenzo[c][2,7]naphthyridin-4-amine], the IC50 came out at 153 nM.
On to `COc1cc2ncc3c(N)nc(-c4cncc(Oc5ccc(N)nc5)c4)cc3c2cc1OC` [Ib-172, 2-{5-[(6-Aminopyridin-3-yl)oxy]pyridin-3-yl}-8,9-dimethoxybenzo[c][2,7]naphthyridin-4-amine], for which the IC50 amounted to 151 nM.
Same read-out and setting: as for `COc1cc2ncc3c(N)nc(-c4cncc(Nc5ccccc5C#N)c4)cc3c2cc1OC` [Ib-178, 2-{[5-(4-amino-8,9-dimethoxybenzo[c][2,7]naphthyridin-2-yl)pyridin-3-yl]amino}benzonitrile], the figure is 105 nM.
On to `COc1cc2ncc3c(N)nc(-c4cncc(Nc5cccc(C#N)c5)c4)cc3c2cc1OC` [Ib-179, 3-{[5-(4-amino-8,9-dimethoxybenzo[c][2,7]naphthyridin-2-yl)pyridin-3-yl]amino}benzonitrile], for which the IC50 was more than 700 nM.
